This note sets out measurements from patent publication EP4205737A1, “COMPOSITION FOR PREVENTION, AMELIORATION, OR TREATMENT OF INFLAMMATORY DISEASES OR IMMUNE DISEASES COMPRISING GANCAONIN N AS ACTIVE INGREDIENT” (UNIVERSITY-INDUSTRY COOPERATION GROUP OF KYUNG HEE …, priority 2020, dated 2022).

One assay has as its system iNOS. Kind of assay: Western blotting of iNOS in LPS-stimulated RAW264.7 cells. The assay is classed as cell-based, murine. The following applies: LPS 1 µg/mL, 5 to 40 µM, as treatment concentration increased (FIG. 2C). How it is done:
(§1) RAW264.7 cells and A549 cells were dispensed into 6-well plates (1 × 10^6 cells/well) and cultured under conditions of 37°C and 5% CO2. After the culturing, the Raw 264.7 cells were treated with 1 µg/mL of lipopolysaccharide (LPS) and the A549 cells were treated with 5 µg/mL of lipopolysaccharide (LPS) and with 5 µM to 40 µM of gancaonin N, and the cells were cultured for 24 hours or 6 hours. Then, the cells were lysed using a lysis buffer. In addition, the left lung extracted from each mouse was lysed using RIPA buffer. SDS-PAGE electrophoresis was performed on the cell and tissue lysates to separate proteins by side, and 5% bovine serum albumin was used for culturing and for blocking antibodies against PGE2 (1:500), IL-1β (1:500), IL-6 (1:500), TNF-α (1:500), i-NOS (1:500), COX-2 (1:1000), P-ERK1/2 (1:1000), ERK1/2 (1:3000), P-p38 (1:1000), p38 (1:3000), NF-κB p65 (1:1000), Lamin B1 (1:1000), and β-actin (1: 5,000).
(§2) To investigate the anti-inflammatory effect of gancaonin N, the inventors treated Raw264.7 cells with LPS and Gancaonin N, as described in Examples 1 to 6, and evaluated the expression level of inflammation-inducing factors. Thus, the inhibitory effect of gancaonin N on inflammation-related factors was specifically confirmed.

For the next assay, the system named is PGE2. Nature of the assay: Western blotting of PGE2 in LPS-stimulated RAW264.7 cells. The assay is classed as cell-based, murine. The following applies: LPS 1 µg/mL, 5 to 40 µM, as treatment concentration increased (FIG. 2B). How it is done:
as §1, §2

In another assay the test system is TNF-α. Nature of the assay: Western blotting of TNF-α in lung of LPS-induced acute lung injury mouse model. It is filed as in vivo, BALB/c mice. As to conditions: mice, 10 mg/kg or 30 mg/kg intraperitoneally, LPS-induced ALI, Western blotting (FIG. 8). How it is done: 25 6-week-old female BALB/c mice having a weight of 18g to 20 g were purchased from BioLink (DBL CO., Eumseong, Chungcheongbuk-do, Korea), and reared in the animal laboratory of KyungHee University. To establish an LPS-induced acute lung injury model, all the mice were divided into five groups each group of which consisted of 5 mice, and the five groups were referred to as control, vehicle (only LPS treatment), gancaonin N (10 mg/kg), gancaonin N (30 mg/kg), and dexamethasone (3 mg/kg). Gancaonin N was intraperitoneally injected at a dose of 10 mg/kg or 30 mg/kg, and dexamethasone was intraperitoneally injected at a dose of 3 mg/kg as a positive control group. In addition, the control and vehicle groups were intraperitoneally injected with 4% DMSO in which gancaonin N was dissolved. Then, 10 µg/50 µL of LPS was intratracheally administered to the mice except for the control group one hour later (the control group mice were administered 50 µL of PBS), and the mice were sacrificed 12 hours later.
RAW264.7 cells and A549 cells were dispensed into 6-well plates (1 × 10^6 cells/well) and cultured under conditions of 37°C and 5% CO2. […]
To specifically investigate whether gancaonin N can inhibit pro-inflammatory factors in a mouse model, the protein expression levels of COX-2, IL-1β, and TNF-α were measured by Western blotting as described in Examples 1 to 6 above.
(A western blot detects proteins with antibodies after separation by electrophoresis.)

The subject of a further assay is nitric oxide (NO). Nature of the assay: Nitric oxide (NO) measurement (Griess reagent) in LPS-stimulated RAW264.7 cells. It is filed as cell-based, murine. The following applies: pretreated 2 hours before LPS 1 µg/mL, 5 to 40 µM, 24 hours, as treatment concentration increased (FIG. 2A). How it is done:
Raw264.7 cells and A549 cells were dispensed into 6-well plates (6 × 10^5 cells/well) and cultured under conditions of 37°C and 5% CO2. After the culturing, the cells were treated with 1 µg/mL of lipopolysaccharide (LPS) and with 5 µM to 40 µM of gancaonin N and cultured for 24 hours, and the concentration of NO produced was determined using the cell culture supernatant. The production of NO was measured by reading the absorbance at 540 nm using Griess reagent. Then, a standard curve was drawn using […], and the result value was expressed as […].
To investigate the anti-inflammatory effect of gancaonin N, the inventors pretreated RAW264.7 cells with gancaonin N, 2 hours before stimulation with LPS, and measured the amount of NO production as described in Examples 1 to 5 above to determine change in the amount of NO production according to the concentration of gancaonin N used to treat the cells.
(Nitrite, measured by Griess reagent, commonly stands in for NO production.)

For the compound `COc1ccc(-c2coc3cc(O)c(CC=C(C)C)c(O)c3c2=O)c(O)c1` [gancaonin N, 5,7-dihydroxy-3-(2-hydroxy-4-methoxyphenyl)-6-(3-methylbut-2-enyl)chromen-4-one], in the assay on iNOS, the “expression level of protein of iNOS” value is given as “significantly decreased”. For the same compound, the “expression level of protein of PGE2” value in the assay with PGE2 was “significantly decreased”. Moreover, the “protein expression level of TNF-α in lung” value in the assay with TNF-α was “significantly reduced”. The “production of NO” value in the assay with nitric oxide (NO) is listed as “significantly decreased”.
